Reference: patent US8410056B2, “Pro-oxidant anti-cancer compounds” (priority 2006, dated 2013)

Assays:
[1] = tested on: MDA-MB-453, MCF-7 and NeuTL breast cancer cells; experiment: ATP bioluminescence assay; type: cell-based, human; murine; details: 6 or 24 h; normoxia or hypoxia
Description: Cell culture and treatment. […] Cells were cultured in DMEM with 10% FCS, 100 U/ml penicillin and 100 μg/ml streptomycin at 37° C. in a humidified atmosphere of 5% CO2. Mitochondrial complex I-deficient (Breen and Scheffler 1979; DeFrancesco et al 1976; Scheffler et al 2004) and complex II-deficient cells (Albayrak et al 2003; Oostveen et al 1995) were grown in DMEM with 10% FCS, […] glucose and non-essential amino acids.
At approximately 70% confluency, cells were treated with up to 50 μM α-TOS (Sigma), up to 100 μM 3-BP (Aldrich) or 30 ng/ml of human recombinant tumor necrosis factor-related apoptosis—inducing ligand (TRAIL) (Weber et al, 2002) under normoxic or hypoxic conditions. For hypoxia, cells overlaid with nitrogen-purged medium were placed in a hypoxic chamber pre-flushed extensively with nitrogen. The hypoxic chamber with cells was then placed in the incubator as required. α-TOS was dissolved in ethanol and used such that the final ethanol concentration in cell culture medium was <0.1% (v/v). Stock solutions of 3-BP were prepared in PBS prior to use.
ATP measurement. MDA-MB-453 and NeuTL cells were seeded at 2×10^5 per ml and MCF-7 cells at 1.2×10^5 per ml into 96-well tissue culture microtitre plates and allowed to recover overnight before use. Cells were incubated for 6 or 24 h with α-TOS or 3-BP under normoxia or hypoxia as described above. ATP levels were then measured using an ATP bioluminescence assay kit HSII (Roche Applied Science) according to the manufacturer's instructions. Briefly, control or treated cells were transferred into black microtitre plates after incubation for 5 min at room temperature with the cell lysis reagent. Luciferase reagent was added and the signal detected immediately using a Fluorostar Optima plate reader (BMG Labtech). Triplicate wells were read for each condition and data evaluated using a standard calibration curve prepared with known concentrations of ATP.

[2] = target: T1, complex II/SDH-dependent activity in NeuTL cells (Mus musculus, UniProt Q8K2B3+Q9CQA3+Q9CXV1+Q9CZB0); experiment: MTT reduction assay of complex II/SDH activity in whole cells; type: cell-based, murine
T1 construct: For specifically measuring complex II activity in whole cells; endogenous in cells; host or cells: NeuTL murine breast cancer cells
T1 sequence (Q8K2B3 43-664): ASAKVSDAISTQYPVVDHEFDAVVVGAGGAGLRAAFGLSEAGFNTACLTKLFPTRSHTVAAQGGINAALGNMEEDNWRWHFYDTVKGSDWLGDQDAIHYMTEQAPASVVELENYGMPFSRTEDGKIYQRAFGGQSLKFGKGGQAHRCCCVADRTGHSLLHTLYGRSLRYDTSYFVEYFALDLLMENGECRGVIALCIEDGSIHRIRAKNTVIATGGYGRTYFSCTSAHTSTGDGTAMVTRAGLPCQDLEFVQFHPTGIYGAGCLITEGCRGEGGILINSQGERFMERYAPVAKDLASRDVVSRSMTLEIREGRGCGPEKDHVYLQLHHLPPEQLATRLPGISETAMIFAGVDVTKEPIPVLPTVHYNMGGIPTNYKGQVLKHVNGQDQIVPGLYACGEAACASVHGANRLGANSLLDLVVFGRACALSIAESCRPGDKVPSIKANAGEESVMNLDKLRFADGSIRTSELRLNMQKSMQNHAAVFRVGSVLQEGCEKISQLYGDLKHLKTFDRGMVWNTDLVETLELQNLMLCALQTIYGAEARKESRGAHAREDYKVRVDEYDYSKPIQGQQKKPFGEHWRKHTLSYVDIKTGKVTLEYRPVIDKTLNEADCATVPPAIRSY
T1 sequence (Q9CQA3 31-282): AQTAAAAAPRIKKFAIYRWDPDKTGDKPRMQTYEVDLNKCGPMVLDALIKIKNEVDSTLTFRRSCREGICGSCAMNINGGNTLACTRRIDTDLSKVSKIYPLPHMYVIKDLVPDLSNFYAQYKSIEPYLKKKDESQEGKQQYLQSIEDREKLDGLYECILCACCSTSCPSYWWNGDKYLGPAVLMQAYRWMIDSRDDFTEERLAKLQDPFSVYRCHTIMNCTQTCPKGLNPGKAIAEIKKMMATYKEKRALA
T1 sequence (Q9CZB0 30-169): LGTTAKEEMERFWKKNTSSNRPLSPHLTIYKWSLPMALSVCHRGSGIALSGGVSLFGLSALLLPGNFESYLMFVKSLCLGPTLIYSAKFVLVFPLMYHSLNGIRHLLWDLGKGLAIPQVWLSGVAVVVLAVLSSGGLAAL
T1 sequence (Q9CXV1 57-159): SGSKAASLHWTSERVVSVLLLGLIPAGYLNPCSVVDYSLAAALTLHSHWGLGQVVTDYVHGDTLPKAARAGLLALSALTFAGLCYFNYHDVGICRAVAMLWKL
Description: MTT assay. MTT solutions were prepared immediately before use by dissolving 2.5 mg/ml 3-(4,5-dimethyl[…] (MTT) (Sigma) in PBS alone or phenol red-free RPMI medium containing 20 mM succinic acid, pH 7.4. Stock solutions of 3-nitropropionic acid (3NPA) in ethanol, thenoyltrifluoroacetone (TTFA) in DMSO, 3-BP in PBS, α-TOS in DMSO, and MitoQ (Alleva et al, 2003, James et al, 2005) in ethanol were prepared. The drugs were tested on NeuTL cells cultured in exponential growth phase in 96-well microtitre plates using 4-8 replicate wells per dilution assayed. To assess the ability of MitoQ to restore MTT reduction, cells were pre-incubated for 60 min with 2 or 5 μM MitoQ. Final concentrations of ethanol or DMSO in cultures were ≦0.1%. Treated and control cells were allowed to reduce MTT to blue formazan crystals for 2 or 4 h at 37° C. and 5% CO2. After incubation, culture supernatants were removed except for 30 μl, before the formazan crystals were solubilized by addition of 150 μl DMSO, and absorbance values were measured at 570 nm using a Fluorostar Optima plate reader.
To this end, the present inventors investigated whether α-TOS interferes with UbQ binding in complex II. For specifically measuring complex II activity in whole cells, a short-term (1-2 h) assay was used based on the reduction of the tetrazolium salt, MTT (Maehara et al, 1988). […] For this, oxidative respiration of murine NeuTL breast cancer cells was sustained on high levels of succinate (20 mM), thereby promoting the SDH activity of complex II (Maehara et al, 1988). The cells were then assayed within 1-2 h for their ability to enzymatically reduce MTT, which under conditions of high succinate becomes a specific indicator of complex II/SDH-dependent activity (Maehara et al, 1988, Berridge and Tan, 1993).

[3] = target: T2, SDH/Complex II, isolated rat liver mitochondria (Rattus norvegicus, UniProt P21913+Q641Z9+Q6PCT8); experiment: SDH/Complex II activity, DCIP/PMS assay; type: biochemical; details: 100 or 300 μM α-TOS; compared to control
T2 construct: Rat liver mitochondria were prepared by differential centrifugation; from tissue; host or cells: rat liver mitochondria / sub-mitochondrial particles
T2 sequence (P21913 31-282): as the sequence (Q9CQA3 31-282) above, with K13T, T24A, E34K, V55I, S94G, D197E, V212L counted along it
T2 sequence (Q641Z9 30-169 limits assumed): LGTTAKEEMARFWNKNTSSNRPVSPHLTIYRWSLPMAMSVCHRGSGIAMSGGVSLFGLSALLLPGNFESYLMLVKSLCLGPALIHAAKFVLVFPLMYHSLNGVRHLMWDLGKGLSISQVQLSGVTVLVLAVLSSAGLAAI
T2 sequence (Q6PCT8 57-159): as the sequence (Q9CXV1 57-159) above, with L51I, T63A, P65Q, A68T, R69K, L75V counted along it
T2 sequence (Q920L2 35-656 partner): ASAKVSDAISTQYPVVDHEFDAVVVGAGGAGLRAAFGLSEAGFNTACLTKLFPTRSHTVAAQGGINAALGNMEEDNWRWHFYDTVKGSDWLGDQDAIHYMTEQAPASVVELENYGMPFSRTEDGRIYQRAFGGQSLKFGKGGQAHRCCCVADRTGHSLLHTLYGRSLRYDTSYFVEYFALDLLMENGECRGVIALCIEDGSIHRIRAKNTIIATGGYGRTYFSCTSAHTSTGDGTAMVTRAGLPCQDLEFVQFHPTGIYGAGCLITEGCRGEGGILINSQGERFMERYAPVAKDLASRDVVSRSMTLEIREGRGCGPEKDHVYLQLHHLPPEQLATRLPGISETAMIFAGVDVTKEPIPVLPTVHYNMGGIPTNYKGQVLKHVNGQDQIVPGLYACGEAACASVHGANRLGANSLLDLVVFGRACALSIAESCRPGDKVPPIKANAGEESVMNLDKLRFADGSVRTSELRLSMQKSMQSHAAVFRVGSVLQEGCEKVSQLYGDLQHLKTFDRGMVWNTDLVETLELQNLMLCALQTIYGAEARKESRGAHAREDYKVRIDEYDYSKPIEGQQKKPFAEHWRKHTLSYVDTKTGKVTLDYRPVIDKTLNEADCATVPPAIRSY
Description: Preparation of sub-mitochondrial particles (SMPs) from isolated rat liver. Rat liver mitochondria were prepared by differential centrifugation according to the modified method of Rice and Lindsay, 1997. 2 ml of mitochondrial pellet were resuspended in 15 ml of 20 mM KH2 PO4 pH 7.4 and sonicated at a setting of 80 Watt for 3×15 s. The sonicated solution was then centrifuged at 6,500×g for 7 min. The supernatant fraction was kept on ice and the remaining pellet resuspended and sonicated again. The sonicated solution was centrifuged as before and the supernatant removed from the second centrifugation step combined with that from the first centrifrugation. The combined supernatant was recentrifitged at 108,000×g for 1 h. The pellet of SMPs was resuspended in 5 ml of 20 mM KH2PO4 pH 7.4 and stored frozen at −20° C. until used.
Measurement of mitochondrial complex II and complex I activity. A time course for the reduction of the complex II substrate 2,6-dichlorophenol indophenol (DCIP) by the mitochondrial preparations was followed by measuring the absorbance at 600 nm in 1 cm cuvettes containing a 1 ml reaction volume (ε600=21×10^3 M^−1cm^−1). The reaction components included NADH, 0.5 mM; succinate, 5 mM; KCN, 10 mM; DCIP, 50 μM; PMS, 50 μM. […] The change in absorbance of DCIP was measured using a spectrophotometer (UVIKON XL, Secomam) and replicate samples were assayed (n=3). […]

[4] = tested on: NADH dehydrogenase (complex I); experiment: Complex I (NADH dehydrogenase) activity; type: biochemical; details: data not shown
Description: Measurement of mitochondrial complex II and complex I activity. A time course for the reduction of the complex II substrate 2,6-dichlorophenol indophenol (DCIP) by the mitochondrial preparations was followed by measuring the absorbance at 600 nm in 1 cm cuvettes containing a 1 ml reaction volume (ε600=21×10^3 M^−1cm^−1). The reaction components included NADH, 0.5 mM; succinate, 5 mM; KCN, 10 mM; DCIP, 50 μM; PMS, 50 μM. For each assay point, 0.5 mg sample protein was used and α-TOS was added at either 100 or 300 μM as indicated. The change in absorbance of DCIP was measured using a spectrophotometer (UVIKON XL, Secomam) and replicate samples were assayed (n=3). When measuring the complex I (NADH dehydrogenase activity), PMS was omitted. […]
Additional support for the role of α-TOS in inhibiting mitochondrial respiratory complex II activity was sought by isolating subcellular fractions containing mitochondrial preparations from rat liver as well as membranous fractions from P. denitrificans. For these studies, the assay method of SDH/Complex II activity was based on that of King (1967) using phenazine methosulphate (PMS) and the terminal electron acceptor, 2,6-dichloroindophenol (DCIP) as the indicator dye by following the decrease in absorbance at 600 nm as it was reduced by SDH driven under conditions of high succinate. […]

For `Cc1c(C)c2c(c(C)c1OC(=O)CCC(=O)O)CC[C@@](C)(CCC[C@H](C)CCC[C@H](C)CCCC(C)C)O2` [Compound 1, α-tocopheryl succinate], the “cellular ATP levels” value [1] was “only significantly reduced cellular ATP levels when applied at the higher concentration of 50 μM”, the “inhibition of MTT reduction after MitoQ pre-incubation” value ([2]; cells pre-incubated 1 h with MitoQ) was “significantly overcome by pre-incubation of the cells with MitoQ” and the “enzymatic reduction of MTT” value ([2]; within a few hours of treatment) was “significant decreases occurring in the levels of MTT reduction”. For the same compound, the “rate of reduction of DCIP (SDH/Complex II activity)” value [3] was “decreased rapidly and significantly after treatment with α-TOS” and the “NADH dehydrogenase (complex I) activity” value [4] was “no effect”.
